Experimental data from patent publication US10913745B2, “Octahydro-pyrrolo[3,4-c]-pyrrole derivatives and analogs thereof as autotaxin inhibitors” (Hoffmann-La Roche Inc., priority 2013, dated 2021).
pIC50: −log10 of the molar value.

Molecular target: ATX (human His-tagged) (Homo sapiens (Human), UniProt Q13822)
Assay: Human ATX enzyme inhibition assay (fluorescence quenching, MR121 substrate)
Type: biochemical
Settings: MR121 substrate 1 μM, ATX 30 nM final, 30° C.
Description: Human ATX Enzyme Inhibition Assay
ATX inhibition was measured by a fluorescence quenching assay using a specifically labeled substrate analogue (MR121 substrate). To obtain this MR121 substrate, BOC and TBS protected 6-amino-hexanoic acid (R)-3-({2-[3-(2-{2-[2-(2-amino-ethoxy)-ethoxy]-ethoxy}-ethoxy)-propionylamino]-ethoxy}-hydroxy-phosphoryloxy)-2-hydroxy-propyl ester (Ferguson et al., Org Lett 2006, 8 (10), 2023) was labeled with MR121 fluorophore (CAS 185308-24-1, 1-(3-carboxypropyl)-11-ethyl-1,2,3,4,8,9,10,11-octahydro-dipyrido[3,2-b:2′,3′-i]phenoxazin-13-ium) on the free amine of the ethanolamine side and then, after deprotection, subsequently with tryptophan on the side of the aminohexanoic acid. Assay working solutions were made as follows: Assay buffer (50 mM Tris-HCl, 140 mM NaCl, 5 mM KCl, 1 mM CaCl2, 1 mM MgCl2, 0.01% Triton-X-100, pH 8.0; ATX solution: ATX (human His-tagged) stock solution (1.08 mg/mL in 20 mM bicine, pH 8.5, 0.15 M NaCl, 10% glycerol, 0.3% CHAPS, 0.02% NaN3), diluted to 1.4-2.5× final concentration in assay buffer; MR121 substrate solution: MR121 substrate stock solution (800 μM MR121 substrate in DMSO), diluted to 2-5× final concentration in assay buffer. Test compounds (10 mM stock in DMSO, 8 μL) were obtained in 384 well sample plates (Corning Costar #3655) and diluted with 8 μL DMSO. Row-wise serial dilutions were made by transferring 8 μL cpd solution to the next row up to row O. The compound and control solutions were mixed five times and 2 μL were transferred to 384 well assay plates (Corning Costar #3702). Then, 15 μL of 41.7 nM ATX solution was added (30 nM final concentration), mixed five times and then incubated for 15 minutes at 30° C. 10 μL of MR121 substrate solution was added (1 μM final concentration), mixed 30 times and then incubated for 15 minutes at 30° C.

Compound	pIC50
NS(=O)(=O)c1ccc(C(=O)N2C[C@H]3CN(C(=O)OCc4ccc(OC(F)(F)F)cc4)C[C@H]3C2)cc1 [Example 7.02, (3aR,6aS)-5-(4-sulfamoyl-benzoyl)-hexahydro-pyrrolo[3,4-c]pyrrole-2-carboxylic acid 4-trifluoromethoxy-benzyl ester]	8.52
NS(=O)(=O)c1ccc(C(=O)N2C[C@H]3CN(C(=O)OCc4ccc(OC(F)(F)F)cc4)C[C@@H]3C2)cc1 [Example 7.03, (3aS,6aS)-5-(4-sulfamoyl-benzoyl)-hexahydro-pyrrolo[3,4-c]pyrrole-2-carboxylic acid 4-trifluoromethoxy-benzyl ester]	8.40
NS(=O)(=O)c1ccc(C(=O)N2C[C@H]3CN(C(=O)CCc4ccc(OC(F)(F)F)cc4)C[C@@H]3C2)cc1 [Example 8, 4-{(3aR,6aR)-5-[3-(4-Trifluoromethoxy-phenyl)-propionyl]-hexahydro-pyrrolo[3,4-c]pyrrole-2-carbonyl}-benzenesulfonamide]	8.07
NS(=O)(=O)c1ccc(C(=O)N2C[C@H]3CN(C(=O)/C=C/c4ccc(OC(F)(F)F)cc4)C[C@@H]3C2)cc1 [Example 8.01, 4-{(3aR,6aR)-5-[(E)-3-(4-trifluoromethoxy-phenyl)-acryloyl]-hexahydro-pyrrolo[3,4-c]pyrrole-2-carbonyl}-benzenesulfonamide]	8.12
CC(C)Oc1cc(C(=O)N2C[C@H]3CN(C(=O)c4ccc(S(N)(=O)=O)cc4)C[C@H]3C2)cc2ccccc12 [Example 8.02, 4-[(3aR,6aS)-5-(4-isopropoxy-naphthalene-2-carbonyl)-hexahydro-pyrrolo[3,4-c]pyrrole-2-carbonyl]-benzenesulfonamide]	7.85
NS(=O)(=O)c1ccc(C(=O)N2C[C@@H]3CN(C(=O)c4cc5ccccc5c(OCC(F)(F)F)n4)C[C@@H]3C2)cc1 [Example 8.03, 4-{(3aR,6aS)-5-[1-(2,2,2-trifluoro-ethoxy)-isoquinoline-3-carbonyl]-hexahydro-pyrrolo[3,4-c]pyrrole-2-carbonyl}-benzenesulfonamide]	8.26
Cn1c(C(=O)N2C[C@H]3CN(C(=O)c4ccc(S(N)(=O)=O)cc4)C[C@H]3C2)cc2cc(OC(F)(F)F)ccc21 [Example 8.04, 4-[(3aR,6aS)-5-(1-Methyl-5-trifluoromethoxy-1H-indole-2-carbonyl)-hexahydro-pyrrolo[3,4-c]pyrrole-2-carbonyl]-benzenesulfonamide]	6.78
CC(C)Oc1cc(C(=O)N2C[C@H]3CN(C(=O)c4ccc(S(N)(=O)=O)cc4)C[C@H]3C2)nc2ccccc12 [Example 8.05, 4-[(3aR,6aS)-5-(4-Isopropoxy-quinoline-2-carbonyl)-hexahydro-pyrrolo[3,4-c]pyrrole-2-carbonyl]-benzenesulfonamide]	7.03
NS(=O)(=O)c1ccc(C(=O)N2C[C@H]3CN(C(=O)c4ccc(-c5ccc(Cl)cc5)cc4)C[C@H]3C2)cc1 [Example 8.06, 4-[(3 aS,6aR)-5-(4′-chloro-biphenyl-4-carbonyl)-hexahydro-pyrrolo[3,4-c]pyrrole-2-carbonyl]-benzenesulfonamide]	8.52
NS(=O)(=O)c1ccc(C(=O)N2C[C@H]3CN(C(=O)CCc4ccc(OC(F)(F)F)cc4F)C[C@H]3C2)cc1 [Example 8.07, 4-{(3aS,6aR)-5-[3-(2-fluoro-4-trifluoromethoxy-phenyl)-propionyl]-hexahydro-pyrrolo[3,4-c]pyrrole-2-carbonyl}-benzenesulfonamide]	9.00
NS(=O)(=O)c1ccc(C(=O)N2C[C@H]3CN(C(=O)CCc4ccc(OC(F)(F)F)cc4)C[C@H]3C2)cc1 [Example 8.08, 4-{(3aS,6aR)-5-[3-(4-trifluoromethoxy-phenyl)-propionyl]-hexahydro-pyrrolo[3,4-c]pyrrole-2-carbonyl}-benzenesulfonamide]	8.82
NS(=O)(=O)c1ccc(C(=O)N2C[C@H]3CN(C(=O)CCc4ccc(OC(F)(F)F)cc4F)C[C@@H]3C2)cc1 [Example 8.09, 4-((3 aR,6aR)-5-(3-(2-fluoro-4-(trifluoromethoxy)phenyl)propanoyl)octahydropyrrolo[3,4-c]pyrrole-2-carbonyl)benzenesulfonamide]	9.00
